Read-outs that look alike come from different tables or passages of the source. Square brackets hold non-standard residues; d marks the D form. Peptide text beside a SMILES is read from it.
Columns and labels:
plasma histamine = conditions: rat
Protocol: For the in vivo evaluation of histamine release, compounds were dosed in isoflurane-anesthetized normal rats at 2 mg/kg by IV bolus (administered over less than one minute). Plasma histamine was measured 5 minutes after compound administration (Cayman histamine EIA #589651).

[1] = molecular target: T1, human calcium-sensing receptor (CaSR) (Homo sapiens, UniProt P41180); assay: In vitro cell assay in HEK-293 expressing the human calcium-sensing receptor (IP1 production); format: cell-based
T1 construct: expressed in transfected cells; host or cells: HEK 293T cells, transiently transfected (lipofectamine 2000); in some cases HEK293 cells stably transfected
T1 sequence (P41180 20-1078): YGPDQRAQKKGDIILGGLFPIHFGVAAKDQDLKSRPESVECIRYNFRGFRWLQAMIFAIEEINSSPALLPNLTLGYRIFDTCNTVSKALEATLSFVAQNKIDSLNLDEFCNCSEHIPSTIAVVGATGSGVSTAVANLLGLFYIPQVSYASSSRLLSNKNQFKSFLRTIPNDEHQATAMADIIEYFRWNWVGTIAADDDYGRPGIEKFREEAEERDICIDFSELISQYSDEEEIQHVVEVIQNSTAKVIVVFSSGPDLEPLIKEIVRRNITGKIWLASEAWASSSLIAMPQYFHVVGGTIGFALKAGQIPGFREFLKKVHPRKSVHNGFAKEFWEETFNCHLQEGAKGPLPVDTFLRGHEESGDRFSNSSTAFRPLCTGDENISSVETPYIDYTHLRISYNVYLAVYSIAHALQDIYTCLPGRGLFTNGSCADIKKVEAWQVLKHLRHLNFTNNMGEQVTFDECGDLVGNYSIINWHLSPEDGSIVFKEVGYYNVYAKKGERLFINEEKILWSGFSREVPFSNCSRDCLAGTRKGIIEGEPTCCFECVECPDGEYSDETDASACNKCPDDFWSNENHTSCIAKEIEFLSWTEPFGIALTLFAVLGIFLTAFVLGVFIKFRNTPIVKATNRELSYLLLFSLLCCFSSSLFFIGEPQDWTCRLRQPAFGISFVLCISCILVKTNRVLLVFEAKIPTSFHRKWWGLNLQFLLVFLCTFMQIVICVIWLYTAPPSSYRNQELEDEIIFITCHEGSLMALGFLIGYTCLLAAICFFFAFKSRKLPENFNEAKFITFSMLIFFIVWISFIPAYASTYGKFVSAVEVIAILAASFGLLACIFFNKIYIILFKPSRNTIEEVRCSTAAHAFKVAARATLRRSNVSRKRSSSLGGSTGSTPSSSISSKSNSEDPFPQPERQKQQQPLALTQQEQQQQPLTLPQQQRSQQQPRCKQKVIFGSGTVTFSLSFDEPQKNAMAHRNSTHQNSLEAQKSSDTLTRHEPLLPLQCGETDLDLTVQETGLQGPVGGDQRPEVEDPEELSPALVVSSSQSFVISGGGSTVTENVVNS
Protocol: The activity of a variety of peptides and conjugates was tested against the human CaSR. These studies were conducted by measuring IP1 production in HEK293 cells that express the human CaSR. Each peptide was tested in eight different concentrations, in duplicates, to establish a dose response curve. Curve fitting was performed using GraphPad Prism. In Table 5, and throughout the specification, residues provided in capital letters are L-amino acids, while lower case letters indicate D-amino acids. “Ac” indicates an acetyl capping group, “NH2” indicates an amide capping group, “Ac-bAla” is an acetylated beta-alanine, “GSH” indicates reduced glutathione, “GS” indicates oxidized glutathione, “PEG” refers to polyethylene glycol, “PEG2” and “PEGS” refer to polyethylene glycol moieties of 2 kDa and 5 kDa, respectively, and “Mpa” refers to mercaptopropionic acid.
The day after, these cells were transfected with human CaSR receptor using lipofectamine 2000 transfection reagent 24 hrs post transfection, cells were seeded in 384 well plates at 8,000 cells/well. […] In some cases, EC50 values were determined by measuring inositol monophosphate production in the HEK293 cells, stably transfected with the human calcium-sensing receptor (see Table 1).
Cells were incubated with compounds at various concentrations (1 mM or 300 μM as the highest and further ½ log serial dilutions) at 37° C. for 1.5 hrs before reaction termination. […] In brief, incubation with the compound was terminated by sequentially adding D2 labeled-IP1 and cryptate-labeled anti-IP1 in lysis buffer and further incubating at room temperature for 60 minutes. […] Non-transfected 293 cells were used as negative control.
IP1 concentrations were calculated from standard curves (generated with Graph Pad Prism ver. 4) using known concentrations of IP1 standards.

plasma PTH [2] = assay: 1K1C rat model of acute renal insufficiency, plasma PTH after dosing; format: in vivo; conditions: 1K1C rats, 3 mg/kg 30-minute IV infusion, FIG. 1
Description: A rat model of acute renal insufficiency (also referred to as the 1K1C model) was developed to simulate the pathology of SHPT associated with end stage renal disease. […] The development of this model allowed for the further characterization of described compounds in the context of a subject with renal dysfunction and elevated PTH. Typical baseline PTH levels in this model averaged ˜450 pg/mL.
The ensuing ischemia/reperfusion (I/R) damage to the remaining kidney results in significant necrosis and renal failure. Serum creatinine levels were elevated for over 24-48 hours following I/R insult (data not shown). […] By 48 hours post-I/R, plasma PTH levels were elevated to ˜450 pg/mL (˜5 fold increase) and in some instances reach as high as ˜1200 pg/mL. This reproducible increase in serum creatinine and PTH provided a robust model that mimics the physiology seen ESRD patients.
The protocol used in this study is as follows. Male Sprague Dawley rats were purchased from Charles River Laboratories (Hollister, Calif.; requested purchase weight 250-275 g). […] Animals were maintained in a temperature-controlled environment with a constant 12 hours light/12 hours dark cycle and free access to food and water at all times. All experimental procedures with animals were performed according to IACUC guidelines.
General anesthesia was induced and maintained by intraperitoneal (IP) injection of sodium pentobarbital (5.2%, 0.4 mL/rat). For animals that received 45 minutes of renal ischemia an additional IP injection of sodium pentobarbital (5.2%, 0.1 mL/rat) was given to maintain the anesthetic plane. Blood sampling for PTH measurements following administration of compounds in normal rats was done under continuous isoflurane anesthesia.
For model development studies, the left femoral vein was cannulated with a PE-10 tube for blood drawing. Both kidneys were exposed via a laparotomy. A right nephrectomy was performed after the right renal pedicle and ureter were ligated with double 2-0 silk sutures. After confirmation of non-bleeding in the right pedicle, the left renal artery was carefully dissected and clamped with a micro vascular clip to induce left renal global ischemia. Renal ischemia was confirmed by observation of a global white-grey color change (blanching). The abdominal incision was temporarily covered with gauze to help maintain the temperature of the abdominal organs. After 45 minutes, the designated period of ischemia, the clip was removed and left renal artery flow was considered restored upon observation of a global restoration of red color. The abdominal incision was closed in layers with 2-0 silk sutures. The animal was then recovered from anesthesia. Physiological parameters including body temperature (36-37.5° C.) and body weight were measured throughout the procedure. Body temperature was monitored and maintained using a heat pad rectal probe feedback system.
Approximately 48 hours after the 1K1C surgery (I/R injury), animals were dosed with various compounds to measure effects on plasma PTH and calcium. In most cases, test articles were administered by IV infusion (infusion time 5, 10 or 30 minutes) although in some studies compounds were administered by IV bolus or subcutaneous (SC) bolus injection. For drug administration and blood draws, animals were anesthetized with isoflurane.

plasma PTH [3] = assay: In vivo PTH lowering after IV bolus in isoflurane-anesthetized normal Sprague Dawley rats; parameters: species or system rat; conditions: for 0.5 mg/kg IV bolus % PTH AUC of saline control / duration of decreased PTH: normal rats; for duration of decreased PTH: 0.5 mg/kg IV bolus, FIG. 5; for PTH-lowering activity in normal rats: 0.5 mg/kg single IV administration
In short: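 Peptides were given as a 0.5 mg/kg IV bolus to normal Sprague Dawley rats kept under isoflurane throughout, with saline bolus controls.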

[4] = test system: rat peritoneal mast cells; assay: In vitro histamine induction in rat peritoneal mast cells; format: cell-based
In short: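 Mast cells from peritoneal lavage of Sprague Dawley rats were incubated with compound at 10 μM for 15 min at 37 °C in HBSS + 25 mM HEPES pH 7.4. Supernatant histamine measured by EIA; response expressed as fold change versus pre-incubation levels.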

[5] = Table 5, IP1 production in HEK293 cells expressing human CaSR, eight concentrations in duplicate, read-out: EC50 in CaSR in vitro assay
[6] = Table 1, isoflurane-anesthetized normal rats, 0.5 mg/kg IV, 1 hour
[7] = Table 1, PTH at 1, 2, 3, 4 h, AUCcmpd treated/AUCsaline control*100
[8] = Table 1, IP1 in HEK293 cells expressing human CaSR, read-out: In vitro EC50

Histamine response in vivo Fold change from pre-dose levels 5′ post injection 2 mg/kg IV bolus (plasma histamine)	EC50 [1, 5]	Histamine in vitro Fold change of non-treated at 10 uM [4]	EC50 [1, 8]	SMILES	mean PTH reduction at the 24 hour time point (plasma PTH [2])	% PTH reduction of baseline at 1 hour post IV administration of 0.5 mg/kg compound (plasma PTH [3]; Table 2, isoflurane-anesthetized normal rats, 0.5 mg/kg IV, 1 hour)	0.5 mg/kg IV bolus % PTH AUC of saline control (plasma PTH [3]; Table 2, AUC 1-4 h)	duration of decreased PTH (plasma PTH [3])	% PTH reduction of baseline at 1 hour post IV admin. of 0.5 mg/kg compound (plasma PTH [3]; [6])	0.5 mg/kg IV bolus % PTH AUC of saline control (plasma PTH [3]; [7])	PTH-lowering activity in normal rats (plasma PTH [3])
0.9 fold				CC(=O)N[C@H](CS)C(=O)N[C@H](CCCNC(=N)N)C(=O)N[C@H](CCCNC(=N)N)C(=O)N[C@H](C)C(=O)N[C@H](CCCNC(=N)N)C(=O)N[C@H](C)C(=O)N[C@H](CCCNC(=N)N)C(N)=O [SEQ ID NO: 25, Ac-crrarar-NH2] (Ac-[dC][dR][dR][dA][dR][dA][dR]-NH2)							
	2.5 µM			CC(=O)N[C@H](CS)C(=O)N[C@H](CCCNC(=N)N)C(=O)N[C@H](CCCNC(=N)N)C(=O)N[C@H](CCCNC(=N)N)C(=O)N[C@H](CCCNC(=N)N)C(=O)N[C@H](CCCNC(=N)N)C(N)=O [SEQ ID NO: 5, Ac-crrrrr-NH2] (Ac-[dC][dR][dR][dR][dR][dR]-NH2)	60%						
0.9 fold		1.3 fold		CC(=O)N[C@H](CS)C(=O)N[C@H](C)C(=O)N[C@H](CCCNC(=N)N)C(=O)N[C@H](CCCNC(=N)N)C(=O)N[C@H](CCCNC(=N)N)C(=O)N[C@H](CCCNC(=N)N)C(=O)N[C@H](C)C(N)=O [SEQ ID NO: 19, Ac-carrrra-NH2] (Ac-[dC][dA][dR][dR][dR][dR][dA]-NH2)		29%	72%				
	0.45 µM	5.0 fold	0.45 µM	CC(=O)N[C@H](CS)C(=O)N[C@H](CCCNC(=N)N)C(=O)N[C@H](CCCNC(=N)N)C(=O)N[C@H](CCCNC(=N)N)C(=O)N[C@H](CCCNC(=N)N)C(=O)N[C@H](C)C(=O)N[C@H](CCCNC(=N)N)C(N)=O [SEQ ID NO: 12, Ac-crrrrar-NH2] (Ac-[dC][dR][dR][dR][dR][dA][dR]-NH2)				at least four hours	3%	3%	
	1.1 µM	4.1 fold	1.1 µM	CC(=O)N[C@H](CS)C(=O)N[C@H](CCCNC(=N)N)C(=O)N[C@H](CCCNC(=N)N)C(=O)N[C@H](CCCNC(=N)N)C(=O)N[C@H](CCCNC(=N)N)C(=O)N[C@H](CCCNC(=N)N)C(=O)N[C@H](C)C(N)=O [SEQ ID NO: 13, Ac-crrrrra-NH2] (Ac-[dC][dR][dR][dR][dR][dR][dA]-NH2)					4%	28%	
	5.9 µM	5.0 fold	5.9 µM	CC(=O)N[C@H](CS)C(=O)N[C@H](CCCNC(=N)N)C(=O)N[C@H](CCCNC(=N)N)C(=O)N[C@H](CCCNC(=N)N)C(=O)N[C@H](C)C(=O)N[C@H](CCCNC(=N)N)C(=O)N[C@H](CCCNC(=N)N)C(N)=O [SEQ ID NO: 11, Ac-crrrarr-NH2] (Ac-[dC][dR][dR][dR][dA][dR][dR]-NH2)					9%	45%	
	1.1 µM	6.6 fold	1.1 µM	CC(=O)N[C@H](CS)C(=O)N[C@H](C)C(=O)N[C@H](CCCNC(=N)N)C(=O)N[C@H](CCCNC(=N)N)C(=O)N[C@H](CCCNC(=N)N)C(=O)N[C@H](CCCNC(=N)N)C(=O)N[C@H](CCCNC(=N)N)C(N)=O [SEQ ID NO: 8, Ac-carrrrr-NH2] (Ac-[dC][dA][dR][dR][dR][dR][dR]-NH2)				at least four hours	0%	0%	below the detection limit or essentially zero
	1.1 µM	5.3 fold	1.1 µM	CC(=O)N[C@H](CS)C(=O)N[C@H](CCCNC(=N)N)C(=O)N[C@H](CCCNC(=N)N)C(=O)N[C@H](C)C(=O)N[C@H](CCCNC(=N)N)C(=O)N[C@H](CCCNC(=N)N)C(=O)N[C@H](CCCNC(=N)N)C(N)=O [SEQ ID NO: 10, Ac-crrarrr-NH2] (Ac-[dC][dR][dR][dA][dR][dR][dR]-NH2)				at least four hours	0%	0%	below the detection limit or essentially zero

— patent US10280198B2, “Therapeutic agents for reducing parathyroid hormone levels” (KAI PHARMACEUTICALS, INC., priority 2009, dated 2019)
